According to patent US5114918A, “Endothelin antagonistic cyclic pentapeptides” (Banyu Pharmaceutical Co., Ltd., priority 1989, dated 1992):
Square brackets hold non-standard residues; d marks the D form. Peptide text beside a SMILES is read from it. dCya = N[C@H](CS(=O)(=O)O)C(=O)O; dPhg = N[C@@H](C(=O)O)c1ccccc1; dNle = CCCC[C@@H](N)C(=O)O; dNva = CCC[C@@H](N)C(=O)O; NMeA = CN[C@@H](C)C(=O)O; Nle = CCCC[C@H](N)C(=O)O; Orn = NCCC[C@H](N)C(=O)O

Target: T1, endothelin receptor (membrane of smooth muscle tissue of porcine aorta) (Sus scrofa, UniProt Q29010)
T1 construct: from tissue; host or cells: smooth muscle tissue of porcine aorta (membrane fraction)
T1 sequence (Q29010 21-427): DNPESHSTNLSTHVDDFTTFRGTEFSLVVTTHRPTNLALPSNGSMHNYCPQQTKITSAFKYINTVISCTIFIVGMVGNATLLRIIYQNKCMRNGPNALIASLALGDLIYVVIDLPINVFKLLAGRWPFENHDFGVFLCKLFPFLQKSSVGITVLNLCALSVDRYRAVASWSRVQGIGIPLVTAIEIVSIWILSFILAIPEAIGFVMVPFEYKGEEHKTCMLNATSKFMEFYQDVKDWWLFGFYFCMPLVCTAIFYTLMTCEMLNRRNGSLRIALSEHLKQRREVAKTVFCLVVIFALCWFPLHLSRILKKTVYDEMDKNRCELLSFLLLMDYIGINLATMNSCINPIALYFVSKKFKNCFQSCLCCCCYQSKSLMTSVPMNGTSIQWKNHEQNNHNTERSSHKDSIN
Experiment: Endothelin binding inhibition test (125I-endothelin-1, porcine aorta smooth muscle membrane)
Settings: 1.1 μM of the test compound; porcine aorta smooth muscle membrane; 25° C, 4 hours; read-out: 125I-endothelin-1 binding inhibition, Inhibition (%)
Experimental: Endothelin binding inhibition test
The smooth muscle tissue of porcine aorta was homogenized in a buffer solution of 10 mM MOPS, pH 7.4, at 4° C. by a polytron. To the homogenate, sucrose was added to a concentration of 20%, and the mixture was centrifuged at 1,000×g for 15 minutes, and the supernatant was further centrifuged at 10,000×g for 15 minutes. The supernatant thereof was further centrifuged at 90,000×g for 40 minutes. The membrane precipitate thereby obtained was suspended in a buffer solution of 5 mM HEPES/Tris, pH 7.4, at a concentration of 25 mg/ml.
Then, 16 μl of this membrane suspension was added to 340 μl of 50 mM Tris/HCl buffer, pH 7.4, containing 10 μM calcium chloride, 10 μM magnesium chloride, 0.1 mM PMSF, 1 μM pepstatin A, 2 μM leupeptin, 1 mM 1,10-phenanthroline and 0.1% bovine serum albumin. To this suspension, 4 μl of (A) endothelin-1 (for nonspecific binding: 0.2 μM as the final concentration), (B) buffer solution A (for total control binding), or (C) a test compound (1.1 μM as the final concentration), was added. Further, to each suspension, 40 μl of ^125 I-endothelin-1 (12000-18000 cpm) was added. These mixtures were incubated at 25° C for 4 hours, then subjected to filtration on a glass filter GF/C and then washed with 5 mM HEPES/Tris, pH 7.4, containing 0.3% bovine serum albumin. Then, the radioactivity trapped by the glass filter was measured, and the ^125 I-endothelin-1 binding inhibition D (%) at 1.1 μM of the test compound was determined by the following equation. [formula] Each test was performed in triplicate.

Structure (SMILES) | inhibition at 1.1 µM
CC(C)C[C@@H]1NC(=O)[C@@H](C(C)C)NC(=O)[C@H](CO)NC(=O)[C@@H](CCC(=O)O)NC(=O)[C@@H](Cc2c[nH]c3ccccc23)NC1=O [Example 1, cyclo(-DTrp-DGlu-Ser-DVal-Leu-)] (cyclo(L[dW][dE]S[dV])) | 19%
CC(C)C[C@@H]1NC(=O)[C@@H](C(C)C)NC(=O)[C@H](C)NC(=O)[C@@H](CS(=O)(=O)O)NC(=O)[C@@H](Cc2c[nH]c3ccccc23)NC1=O [Example 2, cyclo(-DTrp-DCys(O3 Na)-Ala-DVal-Leu-)] (cyclo(A[dV]L[dW][dCya])) | 78%
CC(C)C[C@@H]1NC(=O)[C@@H](C(C)C)NC(=O)[C@H](CCCCN)NC(=O)[C@@H](CC(=O)O)NC(=O)[C@@H](Cc2c[nH]c3ccccc23)NC1=O [Example 4, cyclo(-DTrp-DAsp-Lys-DVal-Leu-)] (cyclo(K[dV]L[dW][dD])) | 74%
CCCC[C@@H]1NC(=O)[C@@H](C(C)C)NC(=O)[C@@H]2CCCN2C(=O)[C@@H](CS(=O)(=O)O)NC(=O)[C@@H](Cc2c[nH]c3ccccc23)NC1=O [Example 5, cyclo(-DTrp-DCys(O3 Na)-Pro-DVal-Nle-)] (cyclo([Nle][dW][dCya]P[dV])) | 81%
CC(C)C[C@@H]1NC(=O)[C@@H](CC(=O)O)NC(=O)[C@@H](Cc2c[nH]c3ccccc23)NC(=O)[C@H](CC(C)C)NC(=O)[C@@H](C(C)C)NC1=O [Example 6, cyclo(-DTrp-DAsp-Leu-DVal-Leu-)] (cyclo(L[dV]L[dW][dD])) | 72%
CC(C)C[C@@H]1NC(=O)[C@@H](C(C)C)NC(=O)[C@H](C)NC(=O)[C@@H](CCC(=O)O)NC(=O)[C@@H](Cc2c[nH]c3ccccc23)NC1=O [Example 7, cyclo(-DTrp-DGlu-Ala-DVal-Leu-)] (cyclo(A[dV]L[dW][dE])) | 27%
CC(C)C[C@@H]1NC(=O)[C@@H](C(C)C)NC(=O)[C@H](CC(=O)O)NC(=O)[C@@H](CCC(=O)O)NC(=O)[C@@H](Cc2c[nH]c3ccccc23)NC1=O [Example 9, cyclo(-DTrp-DGlu-Asp-DVal-Leu-)] (cyclo(D[dV]L[dW][dE])) | 30%
CC(C)C[C@@H]1NC(=O)[C@@H](C(C)C)NC(=O)[C@@H]2CCCN2C(=O)[C@@H](CCC(=O)O)NC(=O)[C@@H](Cc2c[nH]c3ccccc23)NC1=O [Example 10, cyclo(-DTrp-DGlu-Pro-DVal-Leu-)] (cyclo(L[dW][dE]P[dV])) | 54%
CC(C)C[C@@H]1NC(=O)[C@@H](C(C)C)NC(=O)CNC(=O)[C@@H](CC(=O)O)NC(=O)[C@@H](Cc2c[nH]c3ccccc23)NC1=O [Example 11, cyclo(-DTrp-DAsp-Gly-DVal-Leu-)] (cyclo(G[dV]L[dW][dD])) | 74%
CC(C)C[C@@H]1NC(=O)[C@@H](C(C)C)NC(=O)[C@H](C)N(C)C(=O)[C@@H](CC(=O)O)NC(=O)[C@@H](Cc2c[nH]c3ccccc23)NC1=O [Example 13, cyclo(-DTrp-DAsp-MeAla-DVal-Leu-)] (cyclo(L[dW][dD][NMeA][dV])) | 85%
CSCC[C@@H]1NC(=O)[C@@H](CC(=O)O)NC(=O)[C@@H](Cc2c[nH]c3ccccc23)NC(=O)[C@H](CC(C)C)NC(=O)[C@@H](C(C)C)NC1=O [Example 14, cyclo(-DTrp-DAsp-Met-DVal-Leu-)] (cyclo(L[dW][dD]M[dV])) | 75%
CC(C)C[C@@H]1NC(=O)[C@@H](C(C)C)NC(=O)[C@H](Cc2ccc(O)cc2)NC(=O)[C@@H](CC(=O)O)NC(=O)[C@@H](Cc2c[nH]c3ccccc23)NC1=O [Example 16, cyclo(-DTrp-DAsp-Tyr-DVal-Leu-)] (cyclo(L[dW][dD]Y[dV])) | 77%
CC(C)C[C@@H]1NC(=O)[C@@H](C(C)C)NC(=O)[C@H](Cc2c[nH]c3ccccc23)NC(=O)[C@@H](CC(=O)O)NC(=O)[C@@H](Cc2c[nH]c3ccccc23)NC1=O [Example 17, cyclo(-DTrp-DAsp-Trp-DVal-Leu-)] (cyclo(L[dW][dD]W[dV])) | 75%
CC(C)C[C@@H]1NC(=O)[C@@H](C(C)C)NC(=O)[C@H](Cc2c[nH]cn2)NC(=O)[C@@H](CC(=O)O)NC(=O)[C@@H](Cc2c[nH]c3ccccc23)NC1=O [Example 18, cyclo(-DTrp-DAsp-His-DVal-Leu-)] (cyclo(H[dV]L[dW][dD])) | 69%
CC(C)C[C@@H]1NC(=O)[C@@H](C(C)C)NC(=O)[C@H](CCCNC(=N)N)NC(=O)[C@@H](CC(=O)O)NC(=O)[C@@H](Cc2c[nH]c3ccccc23)NC1=O [Example 19, cyclo(-DTrp-DAsp-Arg-DVal-Leu-)] (cyclo(L[dW][dD]R[dV])) | 70%
CC(C)C[C@@H]1NC(=O)[C@@H](C(C)C)NC(=O)[C@H](CCCN)NC(=O)[C@@H](CC(=O)O)NC(=O)[C@@H](Cc2c[nH]c3ccccc23)NC1=O [Example 20, cyclo(-DTrp-DAsp-Orn-DVal-Leu-)] (cyclo(L[dW][dD][Orn][dV])) | 65%
CC(C)C[C@@H]1NC(=O)[C@@H](C(C)C)NC(=O)[C@H](CCC(N)=O)NC(=O)[C@@H](CC(=O)O)NC(=O)[C@@H](Cc2c[nH]c3ccccc23)NC1=O [Example 21, cyclo(-DTrp-nAsp-Gln-DVal-Leu-)] (cyclo(L[dW][dD]Q[dV])) | 73%
CC(C)C[C@@H]1NC(=O)[C@@H](C(C)C)NC(=O)[C@H](CC(=O)O)NC(=O)[C@@H](CC(=O)O)NC(=O)[C@@H](Cc2c[nH]c3ccccc23)NC1=O [Example 22, cyclo(-DTrp-DAsp-Asp-DVal-Leu-)] (cyclo(D[dV]L[dW][dD])) | 75%
CC(C)C[C@@H]1NC(=O)[C@@H](C(C)C)NC(=O)[C@H](CCC(=O)O)NC(=O)[C@@H](CC(=O)O)NC(=O)[C@@H](Cc2c[nH]c3ccccc23)NC1=O [Example 23, cyclo(-DTrp-DAsp-Glu-DVal-Leu-)] (cyclo(E[dV]L[dW][dD])) | 72%
CC(C)C[C@@H]1NC(=O)[C@@H](C(C)C)NC(=O)[C@H](CS)NC(=O)[C@@H](CC(=O)O)NC(=O)[C@@H](Cc2c[nH]c3ccccc23)NC1=O [Example 25, cyclo(-DTrp-DAsp-Cys-DVal-Leu-)] (cyclo(C[dV]L[dW][dD])) | 74%
CC(C)C[C@@H]1NC(=O)[C@@H](C(C)C)NC(=O)[C@H](CO)NC(=O)[C@@H](CC(=O)O)NC(=O)[C@@H](Cc2c[nH]c3ccccc23)NC1=O [Example 26, cyclo(-DTrp-DAsp-Ser-DVal-Leu-)] (cyclo(L[dW][dD]S[dV])) | 75%
CC(C)C[C@@H]1NC(=O)[C@@H](C(C)C)NC(=O)[C@H]([C@@H](C)O)NC(=O)[C@@H](CC(=O)O)NC(=O)[C@@H](Cc2c[nH]c3ccccc23)NC1=O [Example 27, cyclo(-DTrp-DAsp-Thr-DVal-Leu-)] (cyclo(L[dW][dD]T[dV])) | 66%
CC(C)C[C@@H]1NC(=O)[C@@H](CC(C)C)NC(=O)[C@H](C)NC(=O)[C@@H](CC(=O)O)NC(=O)[C@@H](Cc2c[nH]c3ccccc23)NC1=O [Example 28, cyclo(-DTrp-DAsp-Ala-DLeu-Leu-)] (cyclo(A[dL]L[dW][dD])) | 51%
CC(C)C[C@@H]1NC(=O)[C@@H]([C@H](C)O)NC(=O)[C@H](C)NC(=O)[C@@H](CC(=O)O)NC(=O)[C@@H](Cc2c[nH]c3ccccc23)NC1=O [Example 29, cyclo(-DTrp-DAsp-Ala-DThr-Leu-)] (cyclo(A[dT]L[dW][dD])) | 15%
CC[C@@H](C)[C@H]1NC(=O)[C@@H]2CCCN2C(=O)[C@@H](CC(=O)O)NC(=O)[C@@H](Cc2c[nH]c3ccccc23)NC(=O)[C@H](CC(C)C)NC1=O [Example 31, cyclo(-DTrp-DAsp-Pro-DIle-Leu-)] (cyclo(L[dW][dD]P[dI])) | 80%
CCCC[C@H]1NC(=O)[C@@H]2CCCN2C(=O)[C@@H](CC(=O)O)NC(=O)[C@@H](Cc2c[nH]c3ccccc23)NC(=O)[C@H](CC(C)C)NC1=O [Example 33, cyclo(-DTrp-DAsp-Pro-DNle-Leu-)] (cyclo(L[dW][dD]P[dNle])) | 77%
CC(C)C[C@@H]1NC(=O)[C@@H](c2ccccc2)NC(=O)[C@@H]2CCCN2C(=O)[C@@H](CC(=O)O)NC(=O)[C@@H](Cc2c[nH]c3ccccc23)NC1=O [Example 34, cyclo(-DTrp-DAsp-Pro-DPhg-Leu-)] (cyclo(L[dW][dD]P[dPhg])) | 83%
CCC[C@H]1NC(=O)[C@@H]2CCCN2C(=O)[C@@H](CC(=O)O)NC(=O)[C@@H](Cc2c[nH]c3ccccc23)NC(=O)[C@H](CC(C)C)NC1=O [Example 35, cyclo(-DTrp-DAsp-Pro-DNva-Leu-)] (cyclo(L[dW][dD]P[dNva])) | 79%
